This note sets out measurements from patent US11453640B2, “Small molecules for disrupting the super elongation complex and inhibiting transcription elongation for cancer therapy” (NORTHWESTERN UNIVERSITY, priority 2018, dated 2022).

In general, Ki refers to the dissociation constant of the complex between target and ligand, obtained from inhibition or displacement.

Test [1] deals with SEC components AFF1 and AFF4. As to the kind of experiment: Western blotting of SEC and P-TEFb component protein levels in treated cells. Format: cell-based, human. Particulars: HEK293T and HCT-116 cells, 20 μM, 6 hr. The source says: FIG. 1. Peptidomimetic identification of disruptors of the AFF4-CCNT1 interaction within the Super Elongation Complex. (A) Schematic for the identification of small molecule inhibitors of the AFF4-CCNT1 interaction using in silico high-throughput screening. Compounds from the ZINC database were docked with the AFF4-CCNT1 structure (4IMY) using a three-tier glide-docking algorithm, which led to 40 candidates. Residues forming the deep binding pocket of CCNT1 are labeled orange and residues of the AFF4 peptide are labeled red. (B) Validation screening identified KL-1 as a potential SEC disruptor using AlphaLISA screening. […] The Ki constants of both compounds were measured with the AlphaLISA assays. […] 5 μl, 10 and 20 μl cell lysates were loaded and the protein levels of AFF1, AFF4, CCNT1, CDK9 and Tubulin (load control) were determined by western blotting.
FIG. 8, related to FIG. 1. […] 293T cells were treated with 20 μM of KL-1 or KL-2 for 6 hr, and the protein levels of BRD2, BRD4, Pol II (RPB1), SPT5, MED26, MYC, HSP90 (load control) and Tubulin (load control) were measured by western blotting. […] HCT-116 cells were treated with 20 μM of KL-1 or KL-2 for 6 hr, and the protein levels of AFF1, AFF4, CCNT1, CDK9 and Tubulin (load control) were determined by western blotting. […] The log2CPM (counts per million) of the SEC subunits were calculated with HTseq. […]

Test [2] relates to heat shock responsive genes in Drosophila S2 cells. Nature of the test: Heat shock induction in Drosophila S2 cells. The settings on record: 20 μM. The test is classed as cell-based. As for the experimental part: FIG. 5. SEC inhibitors block transcription elongation in SEC-dependent rapid response models. (A-B) Genome browser tracks of Pol II ChIP-seq at the FOS, HSPD1 and HSPE1 genes after 1 hr heat shock of HCT-116 cells treated with vehicle (DMSO) or the indicated SEC inhibitors. HCT-116 cells were pretreated with inhibitors for 5 hr at 37° C. before exchanging medium with conditioned 42° C. medium. Dark and light colors indicate the 37 and 42° C. conditions, respectively. (C) Genome-wide identification of heat shock-induced genes with fold change of reads per million in gene bodies and pausing index. Red dots are the 136 heat shock-induced genes according to Pol II signals (fold change of reads per million in gene bodies >1.5 and pausing index decreased >1.5-fold in the DMSO-treated condition). […] Box plot analysis depicts the log2 fold changes of reads per million in gene bodies (E) (y axis) after heat shock with pretreatment of vehicle or SEC inhibitors. […] S2 cells were heat shocked at 37° C. with and without 20 μM SEC inhibitors for 6 hr (left panel). The statistical analysis was performed with the Wilcoxon test.
Heat Shock Induction. Heat shock of mammalian cells was performed using ˜70-80% confluent HCT-116 cells by adding pre-heated (42° C.) conditioned media collected from identically growing cells (Mahat et al., 2016b). The heat shock cells were incubated at 42° C. for 1 hour. […]

For test [3], the target named is T1, AFF4-CCNT1 interaction (GST-CCNT1 AA 1-300 and biotin-AFF4 peptide AA 32-67) (Homo sapiens, UniProt O60563).
T1 construct: Recombinant GST-CCNT1 (1-300), which was purified by Glutathione Superflow Agarose from Rosetta cells; VCPBIO (peptide synthesis) Addgene P#432; host or cells: Rosetta cells
T1 sequence (O60563 1-300): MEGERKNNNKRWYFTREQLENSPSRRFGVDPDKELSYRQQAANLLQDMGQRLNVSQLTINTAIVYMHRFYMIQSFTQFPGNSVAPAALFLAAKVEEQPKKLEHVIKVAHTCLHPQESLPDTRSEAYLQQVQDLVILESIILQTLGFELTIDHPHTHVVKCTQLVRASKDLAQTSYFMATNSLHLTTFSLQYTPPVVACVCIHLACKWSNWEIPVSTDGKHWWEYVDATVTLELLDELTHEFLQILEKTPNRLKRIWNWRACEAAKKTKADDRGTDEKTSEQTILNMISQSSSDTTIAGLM
As to the kind of experiment: AlphaLISA assay of the AFF4-CCNT1 interaction (Alpha Screen). Format: binding. From the text:
FIG. 1. Peptidomimetic identification of disruptors of the AFF4-CCNT1 interaction within the Super Elongation Complex. (A) Schematic for the identification of small molecule inhibitors of the AFF4-CCNT1 interaction using in silico high-throughput screening. Compounds from the ZINC database were docked with the AFF4-CCNT1 structure (4IMY) using a three-tier glide-docking algorithm, which led to 40 candidates. Residues forming the deep binding pocket of CCNT1 are labeled orange and residues of the AFF4 peptide are labeled red. (B) Validation screening identified KL-1 as a potential SEC disruptor using AlphaLISA screening. GST-CCNT1 (AA 1-300) and biotin-labeled AFF4 peptide (AA 32-67) were used to measure the AFF4-CCNT1 interaction with the AlphaLISA assay. (C) Similarity search for KL-1-like molecules identified KL-2. The peptidomimetic potential of KL-1 and KL-2 can be seen by overlaying them with the AFF4 peptide LFAEP structure. (D) Dose-dependent inhibition of KL-1 and KL-2 on AFF4-CCNT1 interaction. The Ki constants of both compounds were measured with the AlphaLISA assays. (E) Treatment of HEK293T cells with KL-1 and KL-2 results in reduced protein levels of SEC components AFF1 and AFF4 but not CDK9 or CCNT1. HEK293T cells were treated with 20 μM of SEC inhibitors KL-1 or KL-2 for 6 hr. 5 μl, 10 and 20 μl cell lysates were loaded and the protein levels of AFF1, AFF4, CCNT1, CDK9 and Tubulin (load control) were determined by western blotting.
FIG. 8, related to FIG. 1. Peptidomimetic identification of disruptors of the AFF4-CCNT1 interaction within the Super Elongation Complex. (A) Schematic of AlphaLISA assay of the AFF4-CCNT1 interaction. Anti-GST AlphaLISA acceptor beads and AlphaScreen streptavidin donor beads (Perkin Elmer) were used to detect the interaction of GST-CCNT1 (AA1-300) and biotin-AFF4 (AA32-67). (B-C) Optimization of the AlphaLISA assay with various biotin-AFF4 peptide and GST-CCNT1 concentrations. No CCNT1 (B) and mutant AFF4 (C) were used as negative controls. Data are represented as Mean+/−SD. (D) Scheme for chemical synthesis of SEC inhibitors KL-1 and KL-2. Reagents and conditions: a. LDA, THF, −78° C., 15 min., then diethyl oxalate, −78° C. to room temperature. b. NaOH, THF/H2O, room temperature, 15 min. c. EEDQ, 5-chloro-2-methylaniline, THF, room temperature, 24 hr. […] 293T cells were treated with 20 μM of KL-1 or KL-2 for 6 hr, and the protein levels of BRD2, BRD4, Pol II (RPB1), SPT5, MED26, MYC, HSP90 (load control) and Tubulin (load control) were measured by western blotting. (F) Treatment of HCT-116 cells with KL-1 and KL-2 reduced protein levels of SEC components AFF1 and AFF4 but not CDK9 or CCNT1. HCT-116 cells were treated with 20 μM of KL-1 or KL-2 for 6 hr, and the protein levels of AFF1, AFF4, CCNT1, CDK9 and Tubulin (load control) were determined by western blotting. (G-H) Treating cells with KL-1 and KL-2 results in reduced levels of AFF 1 and AFF4. FLAG-AFF1 (G) and FLAG-AFF4 (H) were expressed under the Tet-inducible promoter in HEK293T cells. Cells were treated with 20 μM of the indicated inhibitors for 6 hr for western blotting. […] RNA-seq was performed in HEK293T cells treated for 12 hr with 20 μM of the indicated inhibitors. The log2CPM (counts per million) of the SEC subunits were calculated with HTseq. KL-1 and KL-2 had no significant effects on CCNT1, CDK9 and AFF1 expression, but modest increases in the mRNA levels of AFF4 and ELL2 were observed (n=3). Unpaired two-way ANOVA was used for the statistical testes. **,p<0.05, ***,p<0.001.
To test if candidate compounds can disrupt the AFF4-CCNT1 interaction in vitro, we established and optimized a bead-based AlphaLISA assay with recombinant CCNT1 (1-300) protein and synthesized Biotin-AFF4 peptides (AA 32-67) (FIGS. 8A, 8B and 8C).
AlphaLISA Assay. The interaction of CCNT1-AFF4 was measured by Perkin Elmer's bead-based AlphaLISA assays. […]
(In general: In Alpha technology, singlet oxygen from a donor bead excites a nearby acceptor bead.)

As for `COc1cccc(C(=O)CC(=O)C(=O)Nc2cc(Cl)ccc2C)c1` [KL-1, N-(5-chloro-2-methylphenyl)-4-oxo-4-(3-methoxyphenyl)-2-oxobutanamide], in test [1], the “protein levels of CCNT1, CDK9, Pol II, BRD2 and BRD4” value is on record as “no major effect”; the “protein levels of SEC components AFF1 and AFF4” value is “led to depletion of SEC components AFF1 and AFF4”. Also, the “heat shock induction of the 215 heat shock responsive genes” value in test [2] is on record as “attenuated heat shock induction”. Besides, in test [3] (AlphaLISA, IC50 converted to Ki with the Cheng and Prusoff equation, read-out: Ki, inhibition of the AFF4-CCNT1 interaction), the Ki was 3.48 µM. Moreover, in test [3] (tested at 20 μM), the “disruption of the AFF4-CCNT1 interaction” value was “could inhibit the interaction of AFF4-CCNT1”.
